# Results taken from PMC5736629, “Allosteric modulation of protein-protein interactions by individual lipid binding events” (Nature Communications, 2017).
# How the values were obtained:
# AmtB = target: T1, AmtB (Escherichia coli, UniProt P69681); assay: Native MS lipid titration, lipid binding to AmtB (equilibrium-coupled binding model); details: 50 µM ADP, 298 K
# T1 construct: pelB signal peptide (N, cleaved yes); 10x His-tag (N, cleaved yes); made in house; host or cells: Escherichia coli C41(DE3), pET15b
# T1 sequence (P69681 23-428): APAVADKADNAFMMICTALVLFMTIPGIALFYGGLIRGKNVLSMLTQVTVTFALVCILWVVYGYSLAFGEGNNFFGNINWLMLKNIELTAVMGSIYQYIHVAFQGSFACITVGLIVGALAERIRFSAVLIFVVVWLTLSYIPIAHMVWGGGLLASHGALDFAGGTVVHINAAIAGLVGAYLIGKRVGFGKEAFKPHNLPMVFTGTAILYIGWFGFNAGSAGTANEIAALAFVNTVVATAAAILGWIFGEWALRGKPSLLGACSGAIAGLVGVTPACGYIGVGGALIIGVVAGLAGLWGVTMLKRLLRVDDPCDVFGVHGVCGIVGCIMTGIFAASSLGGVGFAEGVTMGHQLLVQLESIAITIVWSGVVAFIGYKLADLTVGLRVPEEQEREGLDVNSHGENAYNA
# Procedure: (§1) A stock of ADP was prepared by dissolving the ammonium salt form of ADP in water followed by adjusting the pH with ammonium hydroxide to 7.0. Serial dilutions into MS buffer (200 mM ammonium acetate, 0.5% C8E4, and pH adjusted to 7.4 with ammonium hydroxide) supplemented with 5 mM BME was performed to prepare ADP at certain concentrations. Phospholipids were prepared as previously described. In brief, stock solutions of each phospholipid were resuspended in chloroform, aliqouted, and chloroform was removed by a steady stream on nitrogen gas. Lipid films were placed under vacuum overnight to prepare to resuspend in MS buffer supplemented with 5 mM 2-mercaptoethanol. Phospholipid concentration was determined by phosphorus analysis.
# AmtB–GlnK interaction = target: T2, AmtB–GlnK interaction (Escherichia coli, UniProt P69681); assay: Native MS lipid titration, GlnK binding to apo or lipid-bound AmtB; coupling factors (allosteric modulation); details: for Kd: 50 µM ADP, 298 K; for Coupling factor a1: first bound lipid; for Coupling factor a2: second bound lipid; for Coupling factor a3: third bound lipid; for allosteric modulation of AmtB–GlnK (from coupling factors) / effect of lipid-binding events on K D,ALnG: result in words; for increase in the coupling factor per lipid-binding event: linear fit to the coupling factors as a function of bound lipid
# T2 construct: pelB signal peptide (N, cleaved yes); 10x His-tag (N, cleaved yes); made in house; host or cells: AmtB: Escherichia coli C41(DE3), pET15b; stGlnK: Escherichia coli ArcticExpress (DE3) RIL, pET28b
# T2 sequence (P0AC55 whole entry Y51F): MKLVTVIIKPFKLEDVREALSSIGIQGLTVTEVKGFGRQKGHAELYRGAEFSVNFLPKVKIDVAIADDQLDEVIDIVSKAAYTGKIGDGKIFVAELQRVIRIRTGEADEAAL
# T2 sequence (P69681 23-428): as the sequence (P69681 23-428) above
# Procedure: as §1
# AmtB–GlnK complex = target: T3, AmtB–GlnK complex (Escherichia coli, UniProt P69681); assay: Native MS lipid titration, lipid binding to AmtB–GlnK (equilibrium-coupled binding model); details: 50 µM ADP, 298 K
# T3 construct: pelB signal peptide (N, cleaved yes); 10x His-tag (N, cleaved yes); made in house; host or cells: AmtB: Escherichia coli C41(DE3), pET15b; stGlnK: Escherichia coli ArcticExpress (DE3) RIL, pET28b
# T3 sequence (P0AC55 whole entry Y51F): as the sequence (P0AC55 whole entry Y51F) above
# T3 sequence (P69681 23-428): as the sequence (P69681 23-428) above
# Procedure: as §1
# [1] = KD,AL1, first lipid binding to AmtB
# [2] = KD,AL2, second lipid binding to AmtB
# [3] = KD,AL3, third lipid binding to AmtB
# [4] = KD,AG, GlnK binding apo AmtB, from global fit of the titration with the named lipid
# [5] = KD,AL2G, GlnK binding AmtB bound to 2 lipids
# [6] = KD,AL3G, GlnK binding AmtB bound to 3 lipids
# [7] = KD,ALG, GlnK binding AmtB bound to 1 lipid
# [8] = KD,AGL1, first lipid binding to AmtB–GlnK
# [9] = KD,AGL2, second lipid binding to AmtB–GlnK
# [10] = KD,AGL3, third lipid binding to AmtB–GlnK
SMILES,Kd (AmtB; [1]) [µM],Kd (AmtB; [2]) [µM],Kd (AmtB; [3]) [µM],Kd (AmtB–GlnK interaction; [4]) [µM],Kd (AmtB–GlnK interaction; [5]) [µM],Kd (AmtB–GlnK interaction; [6]) [µM],Kd (AmtB–GlnK interaction; [7]) [µM],Coupling factor a1 (AmtB–GlnK interaction),Coupling factor a2 (AmtB–GlnK interaction),Coupling factor a3 (AmtB–GlnK interaction),Kd (AmtB–GlnK complex; [8]) [µM],Kd (AmtB–GlnK complex; [9]) [µM],Kd (AmtB–GlnK complex; [10]) [µM],allosteric modulation of AmtB–GlnK (from coupling factors) (AmtB–GlnK interaction),"effect of lipid-binding events on K D,ALnG (AmtB–GlnK interaction)",increase in the coupling factor per lipid-binding event (AmtB–GlnK interaction)
CCCCCCCCCCCC(=O)OC[C@H](COP(=O)(O)OCC(O)CO)OC(=O)CCCCCCCCCCC (some centres unmarked) [DLPG],22.5 ± 3.23,39.1 ± 9.25,34.03 ± 0.15,0.522 ± 0.0258,0.313 ± 0.0435,0.271 ± 0.0539,0.401 ± 0.0148,1.30 ± 0.04,1.35 ± 0.26,1.19 ± 0.15,17.1 ± 1.96,28.6 ± 3.98,29.1 ± 2.27,,,
CCCCCCCCCCCCCC(=O)OC[C@H](COP(=O)(O)OCC(O)CO)OC(=O)CCCCCCCCCCCCC (some centres unmarked) [DMPG],6.78 ± 0.19,14.6 ± 1.2,20.27 ± 0.12,0.551 ± 0.0134,0.543 ± 0.0387,0.523 ± 0.0284,0.561 ± 0.0235,0.99 ± 0.05,1.04 ± 0.04,1.04 ± 0.02,6.92 ± 0.33,14.1 ± 0.35,19.6 ± 0.33,neutral allosteric modulation,,
CCCCCCCC/C=C\CCCCCCCC(=O)OC[C@H](COP(=O)(O)OCCN)OC(=O)CCCCCCC/C=C\CCCCCCCC [DOPE (cis)],15.1 ± 0.63,36.9 ± 2.85,57.6 ± 13.3,0.517 ± 0.0504,0.315 ± 0.0269,0.206 ± 0.0621,0.421 ± 0.0375,1.23 ± 0.02,1.34 ± 0.10,1.71 ± 0.31,12.3 ± 0.39,27.6 ± 1.09,32.9 ± 2.11,,,
CCCCCCCC/C=C/CCCCCCCC(=O)OC[C@H](COP(=O)(O)OCCN)OC(=O)CCCCCCC/C=C/CCCCCCCC [DOPE (trans)],29.7 ± 2.18,159 ± 57.3,,0.556 ± 0.0327,0.121 ± 0.0256,,0.356 ± 0.0141,1.57 ± 0.14,3.29 ± 0.82,5.28 ± 1.82,19 ± 0.42,46,,greater positive allosteric modulation,,
CCCCCCCCCCCCCCCC(=O)OC[C@H](COP(=O)(O)OCC(O)CO)OC(=O)CCCCCCCCCCCCCCC (some centres unmarked) [DPPG],18.5 ± 1.85,63.8 ± 13.2,99.8 ± 45.3,0.521 ± 0.0158,0.23 ± 0.0559,0.164 ± 0.0721,0.424 ± 0.0361,1.25 ± 0.10,1.98 ± 0.32,1.66 ± 0.33,14.8 ± 0.64,31.7 ± 1.89,53.4 ± 16.6,,,
CCCCCCCC/C=C\CCCCCCCC(=O)O[C@H](COC(=O)CCCCCCCCCCCCCCC)COP(=O)(O)O [POPA],8.11 ± 0.41,18.1 ± 1.18,24.7 ± 2.44,0.517 ± 0.0463,0.707 ± 0.0945,0.75 ± 0.0992,0.644 ± 0.0735,0.81 ± 0.02,0.92 ± 0.04,0.94 ± 0.04,10 ± 0.31,19.8 ± 0.58,26.2 ± 2.19,slight negative allosteric modulation,each binding event weakening the molecular interaction between AmtB and GlnK,
CCCCCCCC/C=C\CCCCCCCC(=O)O[C@H](COC(=O)CCCCCCCCCCCCCCC)COP(=O)([O-])OCC[N+](C)(C)C [POPC],29.2 ± 5.99,68.3 ± 4.81,104 ± 7.56,0.486 ± 0.0325,0.192 ± 0.0112,,0.345 ± 0.0822,1.52 ± 0.23,1.76 ± 0.31,2.50 ± 0.80,18.9 ± 1.36,40.3 ± 3.92,59.5 ± 17.9,,"decrease in K D,ALnG with each consecutive binding event",
CCCCCCCC/C=C\CCCCCCCC(=O)O[C@H](COC(=O)CCCCCCCCCCCCCCC)COP(=O)(O)OCCN [POPE],21.1 ± 0.27,55.3 ± 9.22,96.2 ± 27,0.504 ± 0.0616,0.245 ± 0.0372,0.137 ± 0.0482,0.391 ± 0.0593,1.30 ± 0.04,1.63 ± 0.24,2.04 ± 0.37,16.3 ± 0.4,33.6 ± 1.24,47.7 ± 7.02,positive allosteric modulation,"decrease in K D,ALnG with each consecutive binding event",0.4
CCCCCCCC/C=C\CCCCCCCC(=O)O[C@H](COC(=O)CCCCCCCCCCCCCCC)COP(=O)(O)OCC(O)CO (some centres unmarked) [POPG],13.5 ± 0.73,33.3 ± 6.39,56.7 ± 11.8,0.54 ± 0.0267,0.396 ± 0.0754,0.313 ± 0.162,0.485 ± 0.0356,1.12 ± 0.06,1.30 ± 0.21,1.74 ± 0.46,12.04 ± 0.06,25.4 ± 1.11,34.3 ± 3.4,positive allosteric modulation,"decrease in K D,ALnG with each consecutive binding event",0.3
CCCCCCCC/C=C\CCCCCCCC(=O)O[C@H](COC(=O)CCCCCCCCCCCCCCC)COP(=O)(O)OC[C@H](N)C(=O)O [POPS],10.5 ± 0.97,21.8 ± 1.97,30.4 ± 4.97,0.499 ± 0.0347,0.405 ± 0.0395,0.363 ± 0.0372,0.446 ± 0.0644,1.15 ± 0.09,1.09 ± 0.08,1.13 ± 0.10,9.18 ± 0.6,19.9 ± 0.36,26.7 ± 1.82,neutral allosteric modulation,"little effect on K D,ALnG",
CCCCCCCC/C=C\CCCCCCCC(=O)O[C@H](COC(=O)CCCCCCCCCCCCCCCCC)COP(=O)(O)OCCN [SOPE],16.4 ± 1.39,46.6 ± 9.46,73.6 ± 22,0.528 ± 0.0448,0.321 ± 0.0944,0.215 ± 0.0607,0.482 ± 0.0919,1.16 ± 0.19,1.60 ± 0.19,1.57 ± 0.25,14.5 ± 1.28,2.85 ± 2.32,45.2 ± 7.56,,,
